Laboratory results taken from paper PMC7156724, “Potent BRD4 inhibitor suppresses cancer cell-macrophage interaction” (Nature Communications, 2020).
Several values for one entry are separate records, joined by “and”; a condition that tells them apart may be missing. Equal values may be shown once.

Experiments:
[1] = tested on: NCI-H211 small cell lung cancer (SCLC) cells; test: AlamarBlue assay, NCI-H211; format: cell-based; settings: for Cellular activity in SCLCs (H211), alamarBlue: Fig.1e, replicates
Procedure: (§1) 3. AlamarBlue assay. AlamarBlue was made by resazurin sodium salt (Sigma, Cat
(§2) # 199303) dissolved in PBS.
(§3) NCI-H211, MDA-MB231 and A375 cells were plated in 96-well plates at approximately 30% confluence and left overnight to adhere. In the following day, […]
(§4) of treatment, 10 μl AlamarBlue reagent (0.3 mg/ml) was added to each well, and after 18h, the florescence intensity in each well was measured using a top-reading fluorescent plate reader with excitation at 530 nm and emission at 590 nm. […]

H526 tumors = test: Immunofluorescent staining of cleaved caspase 3 and Ki67 in H526 tumors; format: in vivo, mouse; settings: treated H526 tumors, independent images
Procedure: Immunofluorescence staining of tumor sections was performed according to the manufacturer’s instructions. Slides were imaged using a Zeiss Axiovert 200 fluorescence microscope (Carl Zeiss MicroImaging; Thornwood, NY), and images were captured using Openlab3 software (Imprecision, Lexington, MA). Cleaved caspase 3, Ki67, CSF1, and CD68 positive cells were counted with ImageJ version 1.52s[58].
Supplementary Figure 10. NHWD-870 increased tumor apoptosis and inhibite d tumor proliferation.
(a,b) Immunofluorescent staining of cleaved caspase 3 (apoptotic cells, red) and E-Cadherin (cancer cells, […]
green) in vehicle, NHWD-870 or BMS-986158 treated H526 tumors from Figure 4a. Shown are […]
representative images of cleaved caspase 3 positive cells (a) and quantification of cleaved caspase 3 positive […]
cells (b). Scale bar is 30 μm. Data are presented as mean ± SEM from 6 independent images. p values were […]
calculated using two-tailed, unpaired t tests. **, p<0.01; ***, p<0.001. (c,d) Immunofluorescent staining of […]
Ki67 (proliferating cells, red) and E-Cadherin (cancer cells, green) in vehicle, NHWD-870 or BMS-986158 […]
treated H526 tumors from (Figure 4a). Shown are representative images of Ki67 positive cells (c) and […]
quantification of Ki67 positive cells (d). Scale bar is 30 μm. […]
independent images. p values were calculated using two-tailed, unpaired t tests. *, p<0.05; ***, p<0.001. […]

[2] = Body weight change of H526 SCLC tumor bearing mice; settings: for Mouse body weight changes (%) from Day 0: 3mg/kg, QDx21D, 3 mg/kg
[3] = tested on: MDA-MB231 triple negative breast cancer (TNBC) cells; test: AlamarBlue assay, MDA-MB231; format: cell-based, human; settings: for Cellular activity in TNBCs (MDA-MB231), alamarBlue: Fig.1f, replicates
Procedure: as §1, §2, §3, §4

A375 human melanoma = A375 human melanoma xenograft tumor growth; format: in vivo, mouse; settings: Fig.3e, Group 5, 1 mg/kg PO QD, 5 Days on, 2 Days off / week x3, individual animals
Excerpt: PO, oral administration; QD, once daily; BID, twice daily. b–d Tumor growth curves for A2780 ovarian tumor (n = 5) (b), TMD8 large B cell lymphoma (n = 6) (c), and B16F10 melanoma (n = 5) (d) bearing mice treated with the indicated compounds once daily for 11-21 days. e, f Tumor growth curves for A375 melanoma (n = 6) (e), and patient-derived xenograft (PDX) of melanoma (n = 5) (f) bearing mice treated with the indicated compounds once daily (5 days on, 2 days off) for 21 days. For d–f, NHWD-870 used is NHWD-870-HCl synthesized using Suzuki coupling route. Data are presented as mean ± SEM in (a, b, d, f) and mean + SEM in (c, e). p values were calculated using two-tailed, unpaired t tests. *p < 0.05; **p < 0.01; ***p < 0.001. Source data are provided as a Source Data file.
4–6 weeks old female BALB/c nude mice were used for most experiments, with the exception of 6–8 weeks old female C57BL/6 mice were used for B16F10 experiments, and 6–8 weeks old male BALB/c nude mice and SD rats were used for pharmacokinetic experiments. All animals were purchased from Shanghai SIPPR-Bk Lab Animal Co., Ltd. All animals were housed under a regimen of 12 h light/12 h dark cycles and specific pathogen-free conditions. 5×10^6 NCI-H526, ES-2, MDA-MB231, A2780, A375, B16F10, and TMD-8 cells (0.1 ml) were injected subcutaneously into female nude mice. The melanoma patient-derived xenograft model was derived from a human melanoma sample (BRAF, NARS and NF1 wild type, and p53 mutant) removed from a patient in Xiangya Hospital. Surgically removed tumor fragments were implanted subcutaneously into female NSG mice. When the tumors grew to ~1000 mm^3, they were harvested and cryopreserved or immediately re-implanted for expansion or experiments. Mouse body weight and tumor sizes were measured every 3 days. Once the tumors grew to 150–200 mm^3, mice were treated with the compounds as described in the Figures. 1 × 10^6 A2780 cells (1 ml) were injected into the abdominal cavity of nude mice. Ascitic volume and tumor weight were measured by an electronic balance. All the procedures were evaluated and approved by the Institutional Animal Care and Use Committee of Central South University and Yale University. […]
We apologize for not clearly labeling the experiments using compounds synthesized using Suzuki coupling method. In the revised manuscript, we modified the text to clearly mark the animal models in Fig 3d-f were tested using NHWD-870 synthesized using Suzuki […]
compared the activity of NHWD-870 synthesized using Stille coupling route with the NHWD-870 synthesized from Suzuki coupling route (Reviewer Figure 1). […]
activity and possible toxicity were identical.
Reviewer Figure 1 NHWD-870 synthesized through Stille or Suzuki route has similar properties in vivo. Tumor bearing mice were treated with 2mg/kg of the indicated compounds, orally administrated once daily for 21 days. Shown are tumor growth curves (a) and body weight change (b) for A375 melanoma bearing mice. […]
986158 in terms of potency, but apart from with the A375 melanocyte cell line, the advance seems relatively moderate. With such similar compounds, the pharmacokinetic properties and ability to accumulate at the desired site is often more important. Figure S6d (prev. Fig. 3d) in the previous

## Cc1nnn(C)c1-c1cnc2c3ccc(C(C)(C)O)cc3n([C@H](c3ccccc3)C3CCOCC3)c2c1 [BMS-986158, reference compound]
[1]; concentration 0.0169701
  Cellular activity in SCLCs (H211), alamarBlue: 0.078 and 7.88
[1]; concentration 0.0398488
  Cellular activity in SCLCs (H211), alamarBlue: 0.019 and 6.06
[1]; concentration 0.137272
  Cellular activity in SCLCs (H211), alamarBlue: 0.036 and 13.2
[1]; concentration 0.614394
  Cellular activity in SCLCs (H211), alamarBlue: 28.16 and 35.58
[1]; concentration 1.09152
  Cellular activity in SCLCs (H211), alamarBlue: 74.14 and 79.88
[1]; concentration 1.56864
  Cellular activity in SCLCs (H211), alamarBlue: 88.17 and 88.8
[1]; concentration 2.04576
  Cellular activity in SCLCs (H211), alamarBlue: 89.55 and 89.3
[1]; concentration 3
  Cellular activity in SCLCs (H211), alamarBlue: 86.89 and 89.73
[1]; concentration column prints 2.52288
  Cellular activity in SCLCs (H211), alamarBlue: 87.67 and 88.48
[1]; Homo sapiens, NCI-H211, 72 h, 72 h treatment, nM, read-out: IC50, cellular activity in NCI-H211 (alamarBlue)
  IC50: 6.6 nM
H526 tumors
  % of KI67 (Ki67 positive cells): 15% and 17% and 13% and 16% and 12%
[2]; 3mg/kg,QD, day 0 and day 20 or the last available data point, individual mice
  Body weight change (%): -8.559% and -23.2889% and -19.9501% and -12.3957%
[2]; Day 3, individual mice
  Mouse body weight changes (%) from Day 0: -2.33% and 1.06% and -4.40% and 1.07% and 0.98% and -1.46%
[2]; Day 7, individual mice
  Mouse body weight changes (%) from Day 0: -0.51% and -2.62% and -8.04% and -1.69% and -7.56% and -3.13%
[2]; Day 10, individual mice
  Mouse body weight changes (%) from Day 0: 0.08% and -4.17% and 1.65% and -15.38% and -17.07% and -3.30%
[2]; Day 14, individual mice
  Mouse body weight changes (%) from Day 0: -5.26% and -0.68% and -6.36% and 0.13% and -8.04% and -3.28%
[2]; Day 17, individual mice
  Mouse body weight changes (%) from Day 0: -6.72% and -1.06% and -1.00% and -0.31% and -23.29% and -5.11%
[2]; Day 20, individual mice
  Mouse body weight changes (%) from Day 0: -12.40% and -8.56% and -1.00% and 1.16% and -19.95%
[2]; H526 SCLC tumor bearing mice, 3mg/kg QD
  body weight loss: about 11%
[3]; concentration 0.15
  Cellular activity in TNBCs (MDA-MB231), alamarBlue: 20.45 and 20.15
[3]; concentration 0.6
  Cellular activity in TNBCs (MDA-MB231), alamarBlue: 51.35 and 50.6
[3]; concentration 1
  Cellular activity in TNBCs (MDA-MB231), alamarBlue: 73.39 and 72.09
[3]; concentration 1.5
  Cellular activity in TNBCs (MDA-MB231), alamarBlue: 83.55 and 84.39
[3]; concentration 2
  Cellular activity in TNBCs (MDA-MB231), alamarBlue: 88.19 and 87.76
[3]; concentration 2.5
  Cellular activity in TNBCs (MDA-MB231), alamarBlue: 88.65 and 88.13
[3]; concentration 3
  Cellular activity in TNBCs (MDA-MB231), alamarBlue: 90.46 and 90.37
[3]; concentration -0.3
  Cellular activity in TNBCs (MDA-MB231), alamarBlue: 6.95 and 6.37
[3]; concentration -0.9
  Cellular activity in TNBCs (MDA-MB231), alamarBlue: 4.15 and 1.05
[3]; Homo sapiens, MDA-MB-231, 72 h, 72 h treatment, nM, read-out: IC50, cellular activity in MDA-MB231 (alamarBlue)
  IC50: 5 nM
A375 human melanoma; day 0
  Tumor volume: 150.774 mm3 and 118.553 mm3 and 191.653 mm3 and 150.802 mm3 and 127.386 mm3 and 173.315 mm3
A375 human melanoma; day 4
  Tumor volume: 190.606 mm3 and 233.18 mm3 and 278.289 mm3 and 235.064 mm3 and 184.498 mm3 and 135.54 mm3
A375 human melanoma; day 7
  Tumor volume: 243.772 mm3 and 508.815 mm3 and 374.344 mm3 and 456.749 mm3 and 169.114 mm3 and 146.329 mm3
A375 human melanoma; day 11
  Tumor volume: 541.178 mm3 and 982.065 mm3 and 955.744 mm3 and 627.932 mm3 and 275.862 mm3 and 357.353 mm3
A375 human melanoma; day 14
  Tumor volume: 840.395 mm3 and 1426.45 mm3 and 1137.31 mm3 and 1074.5 mm3 and 373.109 mm3 and 473.708 mm3
A375 human melanoma; day 18
  Tumor volume: 1260.47 mm3 and 1267.54 mm3 and 1188.69 mm3 and 1129.05 mm3 and 402.127 mm3 and 719.097 mm3
A375 human melanoma; day 21
  Tumor volume: 1603.7 mm3 and 1878.69 mm3 and 1789.35 mm3 and 1645.42 mm3 and 683.962 mm3 and 956.808 mm3
